# According to US20090264425A1, “CHEMICAL COMPOUNDS” (PFIZER LIMITED, priority 2004, published 2009):
# Target: T1, HIV-1 reverse transcriptase (Human immunodeficiency virus type 1 group M subtype B, UniProt P04585)
# T1 construct: purified recombinant HIV-1 reverse transcriptase (RT, EC, 2.7.7.49); made in house; host or cells: Escherichia coli
# Assay: Inhibition of HIV-1 reverse transcriptase enzyme ([3H]-Flashplate enzyme assay, 384-well)
# Type: biochemical
# Details: purified recombinant HIV-1 RT expressed in Escherichia Coli; 5% final DMSO
# Excerpt: The activity of the compounds of the invention as reverse transcriptase inhibitors may be measured using the following assay.
# Inhibition of HIV-1 Reverse Transcriptase Enzyme
# The reverse transcriptase activity of the compounds of the invention may be assayed as follows. Using the purified recombinant HIV-1 reverse transcriptase (RT, EC, 2.7.7.49) obtained by expression in Escherichia Coli, a 384-well plate assay system was established for assaying a large number of samples using the [3H]-Flashplate enzyme assay system (NEN-SMP 410A) following the manufacturer's recommendations. The compounds were dissolved in 100% DMSO and diluted with the appropriate buffer to a 5% final DMSO concentration. The inhibitory activity was expressed in percent inhibition relative to the DMSO control.
row,SMILES,IC50 [nM]
1,Cc1cc(CN(C)C(=O)COc2cc(Cl)ccc2Oc2cc(Cl)cc(C#N)c2)on1 [Example 25],2180
2,"N#Cc1cc(Cl)cc(Oc2cc(Cl)ccc2OCC(=O)Nc2ccc(S(N)(=O)=O)cc2Cl)c1 [Example 9, N-[4-(Aminosulfonyl)-2-chlorophenyl]-2-[4-chloro-2-(3-chloro-5-cyanophenoxy)phenoxy]acetamide]",6
3,N#Cc1cc(Cl)cc(Oc2cc(Cl)ccc2OCC(=O)N2CCc3ccc(S(=O)(=O)N4CCOCC4)cc3C2)c1 [Example 16],541
4,Cc1cnccc1NC(=O)COc1cc(Cl)ccc1Oc1cc(Cl)cc(C#N)c1 [Example 50],5.68
5,"Cc1nc(S(N)(=O)=O)ccc1NC(=O)COc1ccc(Cl)cc1Sc1cc(Cl)cc(C#N)c1 [Example 46, N-[6-(Aminosulfonyl)-2-methylpyridin-3-yl]-2-{4-chloro-2-[(3-chloro-5-cyanophenyl)thio]phenoxy}acetamide]",27.7
6,"N#Cc1cc(Cl)cc(Oc2cc(Cl)ccc2OCC(=O)N2CCCc3cc(S(N)(=O)=O)ccc32)c1 [Example 1, 1-{[4-Chloro-2-(3-chloro-5-cyanophenoxy)phenoxy]acetyl}-1,2,3,4-tetrahydroquinoline-6-sulfonamide]",26.1
